The record followed here is patent publication US8440641B2, “Phthalocyanine salt formulations” (Case Western Reserve University, priority 2009, dated 2013).

Some results are limits rather than exact numbers.

Assay type in all cases: physicochemical
Data set [1] can be described thus: Qualitative solubility in representative organic solvents. As to conditions: for solubility in CH2Cl2: CH2Cl2, qualitative; for solubility in dimethylformamide / solubility in ethanol / solubility in hexanes / solubility in toluene: qualitative.
Data set [2] can be described thus: Salt concentration in polar and nonpolar solvents (Table 2).
Data set [3] in a line: Concentration of salt in solution, gel and film. To be noted: Tween 80 21.6 mg. An excerpt: The identification of water soluble phthalocyanine salts also makes possible the preparation of aqueous gel formulations of phthalocyanine salts. […] These phthalocyanine salt-containing gels provide gel formulations of phthalocyanine salts suitable for topical use. Thin films of the gels can also be dried to form coherent, stable, water-swellable films. These films provide formulations for phthalocyanine salt-containing patches that can be used for topical administration.

Data set [4] can be described thus: Chemical stability (air, chromatography). To be noted: air.

“[HOSiPcOSi(CH3)2(CH2)3NH(CH2)21]^+[OC(O)CHOHCH2C(O)OH]^− [Compound 6]”: in data set [1], the “solubility in CH2Cl2” value is given as “soluble”, the solubility in dimethylformamide entry is “soluble”, the solubility in ethanol entry is “soluble” and the solubility in hexanes entry is recorded as “insoluble”. Moreover, in data set [1], the solubility in toluene result is “moderately soluble”. Besides, the “salt concentration, […] aqueous Tween 80” value in data set [2] ([…] aqueous Tween 80) stood at 0.165 mM. Besides, the “solubility in aqueous solution” value in data set [2] (aqueous solution, in words) is recorded as “show solubility”. Also, the “salt concentration, hexanes” value in data set [2] (hexanes) worked out at 0.0006 mM. Also, in data set [2] (hexanes, mineral oil (Nujol), in words), the “solubility in hexanes and mineral oil” value was “little”. Moreover, the “salt concentration, mineral oil” value in data set [2] (mineral oil) was 0.0002 mM. The product conc in data set [3] (film: Pc 4 0.33 mg, HEC 118 mg) was approximately 0.2%. In data set [3] (gel: Pc 4 0.33 mg, H2O 3.0 mL, HEC 118 mg), the product conc is approximately 0.01%. Also, the product conc in data set [3] (solution: Pc 4 0.33 mg, H2O 3.0 mL) is given as 0.11 mg/mL.

Turning to `CCC(=O)O[Si-2]123(O[Si](C)(C)CCCN(C)C)n4c5c6ccccc6c4N=C4c6ccccc6C(=[N+]41)N=c1c4ccccc4c(n12)=NC1=[N+]3C(=N5)c2ccccc21` [Compound 3, CH3CH2C(O)OSiPcOSi(CH3)2(CH2)3N(CH3)2], in data set [4], the stability in air result is “stable”. Also, in data set [1], the “solubility in CH2Cl2” value was “soluble”, the solubility in dimethylformamide result is reported as “soluble”, the solubility in ethanol entry is “soluble” and the solubility in hexanes result is “insoluble”. Besides, in data set [1], the solubility in toluene entry is on record as “moderately soluble”.

With “[ClSiPcOSi(CH3)2(CH2)3NH(CH3)2]^+Cl^− [Compound 28]”, the “time of hydrolysis by air to Pc 4” value in data set [4] was not above 30 min. Besides, in data set [1], the “solubility in CH2Cl2” value was “soluble”, the solubility in dimethylformamide result is recorded as “soluble”, the solubility in ethanol entry is “soluble” and the solubility in hexanes entry is listed as “insoluble”. For the same molecule, the solubility in toluene result in data set [1] was “moderately soluble”.

In the case of `CN(C)CCC[Si](C)(C)O[Si-2]123(F)n4c5c6ccccc6c4N=C4c6ccccc6C(=[N+]41)N=c1c4ccccc4c(n12)=NC1=[N+]3C(=N5)c2ccccc21` [Compound 1, FSiPcOSi(CH3)2(CH2)3N(CH3)2], in data set [4], the stability in air entry is “stable”. Further, in data set [1], the “solubility in CH2Cl2” value is on record as “soluble”, the solubility in dimethylformamide entry is on record as “soluble”, the solubility in ethanol entry is reported as “soluble” and the solubility in hexanes result is “insoluble”. Further, the solubility in toluene entry in data set [1] is “moderately soluble”.

Take “[CH3C(O)C(O)OSiPcOSi(CH3)2(CH2)3NH(CH3)2]^+Cl^− [Compound 29]”: in data set [4], the “time of hydrolysis by air to Pc 4” value is not above 120 min. In addition, in data set [1], the “solubility in CH2Cl2” value was “soluble”, the solubility in dimethylformamide result is reported as “soluble”, the solubility in ethanol result is on record as “soluble” and the solubility in hexanes entry is listed as “insoluble”. Besides, the solubility in toluene entry in data set [1] is given as “moderately soluble”.

Turning to `CO[Si]1(O[Si](C)(C)CCCN(C)C)n2c3c4ccccc4c2N=C2N=C(N=c4c5ccccc5c(n41)=NC1=NC(=N3)c3ccccc31)c1ccccc12` (stereo not shown) [Compound 4, CH3OSiPcOSi(CH3)2(CH2)3N(CH3)2], in data set [4], the stability in air result is on record as “stable”. Also, in data set [1], the “solubility in CH2Cl2” value is reported as “soluble”, the solubility in dimethylformamide result is “soluble”, the solubility in ethanol entry is “soluble” and the solubility in hexanes result was “insoluble”. For the same molecule, the solubility in toluene entry in data set [1] is listed as “moderately soluble”.

As to `CC(=O)O[Si-2]123(O[Si](C)(C)CCCN(C)C)n4c5c6ccccc6c4N=C4c6ccccc6C(=[N+]41)N=c1c4ccccc4c(n12)=NC1=[N+]3C(=N5)c2ccccc21` [Compound 2, CH3C(O)OSiPcOSi(CH3)2(CH2)3N(CH3)2], the stability in air entry in data set [4] is “stable”. In addition, in data set [1], the “solubility in CH2Cl2” value was “soluble”, the solubility in dimethylformamide entry is listed as “soluble”, the solubility in ethanol entry is recorded as “soluble” and the solubility in hexanes entry is reported as “insoluble”. The solubility in toluene entry in data set [1] is recorded as “moderately soluble”.
